According to publication PMC3403540, “Active Hydrophilic Components of the Medicinal Herb Salvia miltiorrhiza (Danshen) Potently Inhibit Organic Anion Transporters 1 (Slc22a6) and 3 (Slc22a8)” (Evidence-based Complementary and Alternative Medicine : eCAM, 2012):
Where a name gives a salt, the structure may show the parent alone. Read-outs that look alike come from different tables or passages of the source.

Experiments:
mOat3 [1] = biological target: T1, mOat3 (Mus musculus, UniProt O88909); design: method as in PMID 18381565; conditions: CHO-mOat3 cells, determined previously; cited from earlier work
T1 construct: expressed in transfected cells; host or cells: CHO (Chinese hamster ovary), stably transfected (CHO-mOat3)
T1 sequence (O88909 1-537): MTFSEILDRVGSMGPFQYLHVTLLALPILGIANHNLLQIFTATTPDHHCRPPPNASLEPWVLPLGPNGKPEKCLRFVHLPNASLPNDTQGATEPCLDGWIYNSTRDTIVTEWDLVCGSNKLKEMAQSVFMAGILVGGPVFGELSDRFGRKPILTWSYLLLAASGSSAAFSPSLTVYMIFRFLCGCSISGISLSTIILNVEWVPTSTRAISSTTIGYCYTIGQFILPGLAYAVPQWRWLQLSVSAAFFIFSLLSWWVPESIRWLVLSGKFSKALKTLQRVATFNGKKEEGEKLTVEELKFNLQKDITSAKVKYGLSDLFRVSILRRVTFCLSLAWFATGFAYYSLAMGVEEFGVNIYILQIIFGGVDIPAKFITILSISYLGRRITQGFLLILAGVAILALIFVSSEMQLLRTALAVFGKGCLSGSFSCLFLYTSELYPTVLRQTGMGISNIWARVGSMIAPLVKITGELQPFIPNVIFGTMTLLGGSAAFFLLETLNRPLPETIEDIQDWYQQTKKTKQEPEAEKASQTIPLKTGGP

mOat3 [2] = biological target: T1, mOat3; test: Inhibition of mOat3-mediated [3H]ES uptake in CHO-mOat3 cells (cell accumulation assay); assay type: cell-based, murine; conditions: for inhibition at 1000 µM: read-out: inhibition of mOat3-mediated ES uptake
Description: (§1) Derivation of the stably transfected Chinese hamster ovary (CHO) cell lines expressing mOat1 (CHO-mOat1), mOat3 (CHO-mOat3), and the empty vector (FRT) transfected control cell line (CHO-FRT) was described previously.
(§2) Cell transport assay procedures were adapted from those previously published. In brief, 2 × 10^5 cells/well were seeded in 24-well tissue culture plates and grown in the absence of antibiotics for 48 hr. On the day of the experiment, cells were equilibrated with transport buffer for 10 min (500 μL of Hanks' balanced salt solution containing 10 mM HEPES, pH 7.4). […] After incubation, cells were immediately rinsed three times with ice-cold transport buffer, lysed, and analyzed via liquid scintillation counting. Uptake values were normalized to corresponding total protein content in cell lysates as determined by the Bradford method. Substrate accumulation is reported as picomoles of substrate per milligram protein. […] Kinetic calculations were performed using GraphPad Prism Software version 5.0 (GraphPad Software Inc., San Diego, CA, USA). Michaelis constant (K m) values were calculated by nonlinear regression using the Michaelis-Menten model. Mode of inhibition was identified by using mixed model inhibition analysis as follows: (1) Vmax Apparent =Vmax/(1+[I]/(α×Ki)),Km Apparent=Km1+[I]/Ki/(1+[I]/(α×Ki)),Y=Vmax Apparent×x/Km Apparent+x, where V max, K i, and I represent the maximum transport velocity without inhibitor, the inhibition constant generated from the data set under analysis, and the concentration of inhibitor, respectively. In this study, three curves were constructed (no inhibitor, plus two selected inhibitor concentrations) with uptake of substrate plotted as a function of its concentration for each condition. […] The parameter, α, can then be used to determine the mode of inhibition. When α is very large (α > 1), it indicates competitive inhibition. Otherwise, it indicates noncompetitive inhibition (α = 1) or uncompetitive inhibition (0 < α < 1). To estimate K i values, IC50 values were calculated using nonlinear regression and inserted into the Cheng-Prusoff equation: K i = IC50/(1 + [Substrate]/K m). Results were confirmed by repeating all experiments at least three times with triplicate wells for each data point in every experiment.
Figure 2 Inhibition profile of mOat1 and mOat3. […] (5 μM) by LSA, PCA, RMA, SAA, SAB, TSL, and probenecid (1000 μM) was measured in the CHO-mOat1 cells (10 min). […] (b) Inhibition of mOat3-mediated uptake of [^3H]ES (1 μM) by LSA, PCA, RMA, SAA, SAB, TSL, and probenecid (1000 μM) was measured in the CHO-mOat3 cells (10 min). […] Values are mean ± S.D. of triplicate values. ***denotes P < 0.001 as determined by one-way ANOVA followed by Dunnett's t-test.
Figure 5 K i determination for LSA, RMA, and SAA in the CHO-mOat3 cell line. One minute uptake of [^3H]ES (1 μM) in CHO-mOat3 cells was measured in the presence of increasing concentrations (10^−7 to 4 × 10^−4 M) of LSA, RMA, and SAA. Data were corrected for nonspecific background measured in the CHO-FRT cells prior to kinetic analysis. K i values were determined with non-linear regression and the “one-site competition” model using GraphPad Prism software. Graphs shown are from representative experiments with values plotted as mean ± S.D. (n = 3).

mOat1 [3] = biological target: T2, mOat1 (Mus musculus, UniProt Q8VC69); test: Inhibition of mOat1-mediated [3H]PAH uptake in CHO-mOat1 cells (cell accumulation assay); assay type: cell-based, murine; conditions: read-out: inhibition of mOat1-mediated PAH uptake
T2 construct: expressed in transfected cells; host or cells: CHO (Chinese hamster ovary), stably transfected (CHO-mOat1)
T2 sequence (Q8VC69 1-545): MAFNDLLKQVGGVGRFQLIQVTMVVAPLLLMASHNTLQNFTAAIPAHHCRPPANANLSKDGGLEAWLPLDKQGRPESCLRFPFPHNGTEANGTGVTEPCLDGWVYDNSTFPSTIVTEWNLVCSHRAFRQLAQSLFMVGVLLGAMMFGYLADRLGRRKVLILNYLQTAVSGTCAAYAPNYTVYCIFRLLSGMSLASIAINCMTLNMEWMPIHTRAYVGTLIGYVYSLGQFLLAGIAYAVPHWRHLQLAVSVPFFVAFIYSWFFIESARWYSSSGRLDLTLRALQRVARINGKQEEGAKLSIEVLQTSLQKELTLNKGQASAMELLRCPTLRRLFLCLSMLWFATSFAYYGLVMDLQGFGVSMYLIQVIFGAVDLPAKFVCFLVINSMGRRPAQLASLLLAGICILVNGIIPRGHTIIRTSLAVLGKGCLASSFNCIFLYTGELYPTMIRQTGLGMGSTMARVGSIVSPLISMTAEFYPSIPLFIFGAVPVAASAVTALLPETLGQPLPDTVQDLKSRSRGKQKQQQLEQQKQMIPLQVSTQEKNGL
Description: as §1
as §2, with “Mode of inhibition was identified by using mixed model inhibition analysis as follows: (1) Vmax Apparent =Vmax/(1+[I]/(α×Ki)),Km Apparent=Km1+[I]/Ki/(1+[I]/(α×Ki)),Y=Vmax Apparent×x/Km Apparent+x, where V max, K i, and I represent the maximum transport velocity without inhibitor, the inhibition constant generated from the data set under analysis, and the concentration of inhibitor, respectively.” left out, “Otherwise, it indicates noncompetitive inhibition (α = 1) or uncompetitive inhibition (0 < α < 1). To estimate K i values, IC50 values were calculated using nonlinear regression and inserted into the Cheng-Prusoff equation: K i = IC50/(1 + [Substrate]/K m).” left out
Figure 3 Michaelis-Menten kinetics of PAH transport in CHO-mOat1 cells. In order to calculate K i values for mOat1, the K m value for PAH needed to be determined in the CHO-mOat1 cell system. […] The corrected curve (closed circles) was obtained by subtracting the nonspecific background uptake as measured in the CHO-FRT cells from CHO-mOat1 accumulation to allow analysis of mOat1-mediated activity. Experiments were repeated three times in triplicate, and Michaelis constant (K m) values were calculated by nonlinear regression using the Michaelis-Menten model. […] Graph shown is from a representative experiment with values plotted as mean ± S.D. (n = 3).
Figure 2 Inhibition profile of mOat1 and mOat3. […] (b) Inhibition of mOat3-mediated uptake of [^3H]ES (1 μM) by LSA, PCA, RMA, SAA, SAB, TSL, and probenecid (1000 μM) was measured in the CHO-mOat3 cells (10 min). […] Values are mean ± S.D. of triplicate values. ***denotes P < 0.001 as determined by one-way ANOVA followed by Dunnett's t-test.
Figure 4 K i determination for LSA, RMA, and SAA in the CHO-mOat1 cell line. […] (5 μM) in CHO-mOat1 cells was measured in the presence of increasing concentrations (10^−7 to 5 × 10^−4 M) of LSA, RMA, and SAA. Data were corrected for nonspecific background measured in the CHO-FRT cells prior to kinetic analysis. K i values were determined with non-linear regression and the “one-site competition” model using GraphPad Prism software. Graphs shown are from representative experiments with values plotted as mean ± S.D. (n = 3).

mOat1 [4] = biological target: T2, mOat1; design: method as in PMID 21546538; conditions: cited from earlier work
mOat3 [5] = biological target: T1, mOat3; design: method as in PMID 21546538; conditions: cited from earlier work
hOAT1 = test system: hOAT1; design: method as in PMID 15870380; conditions: cited from earlier work
mOat3 [6] = biological target: T1, mOat3; design: method as in PMID 19953504, PMID 17553798, PMID 18973812; conditions: read-out: K i for mOat3; cited from earlier work
[7] = rats; cited from earlier work
[8] = 1 mM (1000 μM) inhibitor, 1 μM [3H]ES, 10 min, CHO-mOat3 cells

For `C[C@]12CC[C@@H]3c4ccc(OS(=O)(=O)O)cc4CC[C@H]3[C@@H]1CCC2=O` [ES, estrone sulfate], the “K m of ES on mOat3” value (mOat3 [1]) is listed as 12.2 ± 4.8 µM.

For `O=C(O)c1ccc(O)c(O)c1` [PCA, protocatechuic acid], the inhibition at 1000 µM (mOat3 [2]) was > 91% and the inhibition at 1000 µM (mOat1 [3]) was > 95%.

In the case of `COc1cccc2c1cc([N+](=O)[O-])c1c(C(=O)O)cc3c(c12)OCO3` [aristolochic acid], the “K m as substrate for mOat1” value (mOat1 [4]) is given as 790 nM and the “K m as substrate for mOat3” value (mOat3 [5]) is given as 514 nM.

In the case of `O=c1oc2c(O)c(O)cc3c(=O)oc4c(O)c(O)cc1c4c23` [ellagic acid], the IC50 (hOAT1) is listed as 207 nM.

In the case of `CCCN(CCC)S(=O)(=O)c1ccc(C(=O)O)cc1` [probenecid, reference compound], the inhibition at 1000 µM (mOat3 [2]; [8]) is listed as > 91% and the Ki (mOat3 [6]) is listed as 4.6 µM.

For salvianolic acid B [SAB], the “increase of AUC on spiking additional SAA into Danshen preparations” value [7] is listed as 82.4%, the “reduction of clearance on spiking additional SAA into Danshen preparations” value [7] is listed as 46.8% and the “inhibition of mOat3-mediated ES uptake” value (mOat3 [2]; [8]) is listed as “approximately 53%”.
